ChEMBL document CHEMBL5614465, “Discovery of the First Clinical Protein Degrader for the Treatment of Autoimmune Indications: Orally Bioavailable and Selective IRAK4 Degrader KT-474” (J Med Chem, 2024)

Target: Protein cereblon/Interleukin-1 receptor-associated kinase 4 (Homo sapiens, UniProt Q9NWZ3+Q96SW2)
Experiment: PROTAC activity at CRBN/IRAK4 in human HEK293T cells assessed as induction of IRAK4 degradation measured after 24 hrs by immunoblotting analysis
Assay type: cell-based

Chain of Protein cereblon/Interleukin-1 receptor-associated kinase 4 (Q9NWZ3 whole entry): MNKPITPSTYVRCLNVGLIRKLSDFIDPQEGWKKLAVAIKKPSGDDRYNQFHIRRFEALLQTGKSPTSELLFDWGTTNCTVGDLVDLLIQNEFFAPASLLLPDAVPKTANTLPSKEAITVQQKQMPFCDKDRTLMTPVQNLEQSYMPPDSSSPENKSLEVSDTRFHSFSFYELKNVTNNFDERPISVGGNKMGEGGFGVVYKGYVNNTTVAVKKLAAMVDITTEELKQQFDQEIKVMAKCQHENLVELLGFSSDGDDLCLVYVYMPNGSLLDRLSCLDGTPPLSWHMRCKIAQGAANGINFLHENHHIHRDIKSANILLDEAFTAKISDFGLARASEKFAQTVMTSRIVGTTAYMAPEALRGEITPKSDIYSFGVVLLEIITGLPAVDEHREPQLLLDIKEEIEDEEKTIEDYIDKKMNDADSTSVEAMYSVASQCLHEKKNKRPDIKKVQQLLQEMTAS
Chain of Protein cereblon/Interleukin-1 receptor-associated kinase 4 (Q96SW2 whole entry): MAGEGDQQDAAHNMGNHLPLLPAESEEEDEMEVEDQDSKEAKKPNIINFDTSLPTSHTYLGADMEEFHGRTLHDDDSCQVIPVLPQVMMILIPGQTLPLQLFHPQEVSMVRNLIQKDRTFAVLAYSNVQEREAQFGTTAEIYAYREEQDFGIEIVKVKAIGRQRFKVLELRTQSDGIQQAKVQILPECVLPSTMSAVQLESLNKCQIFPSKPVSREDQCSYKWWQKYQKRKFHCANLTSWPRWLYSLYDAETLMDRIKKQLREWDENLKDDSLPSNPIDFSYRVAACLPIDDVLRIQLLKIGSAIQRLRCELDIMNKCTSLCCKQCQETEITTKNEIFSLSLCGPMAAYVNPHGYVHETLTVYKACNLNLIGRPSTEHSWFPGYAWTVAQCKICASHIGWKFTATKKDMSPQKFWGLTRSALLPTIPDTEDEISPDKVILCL

- DC50: 405 nM
Compound: CC(C)Nc1cc(-n2ccc3cc(C#N)cnc32)ncc1C(=O)N[C@H]1CC[C@H](C(=O)NCCOCCNC(=O)COc2cccc3c2C(=O)N(C2CCC(=O)NC2=O)C3=O)CC1 (stereo partly specified)
